Assay results taken from patent US10105357B2, “Indication of antibiotic drugs for preparation of cancer inhibition pharmaceutical composition” (LAUNX BIOMEDICAL CO., LTD., priority 2014, dated 2018).
Counter-ions that a name gives are not always drawn. Like-named read-outs stand apart in the source and are kept apart here.

Tests used:
Type in all cases: cell-based, human
[1] = system: A375 (Amelanotic Melanoma); assay: Cell viability analysis, skin cancer A375; conditions: Homo sapiens
[2] = system: AGS (Gastric Adenocarcinoma); assay: Cell viability analysis, gastric cancer AGS; conditions: Homo sapiens
[3] = system: PC3 (p53−) (Prostate Adenocarcinoma); assay: Cell viability analysis, prostate cancer PC3; conditions: Homo sapiens
[4] = system: HepG2 (Hepatocellular Carcinoma); assay: Cell viability analysis, hepatic cancer HepG2; conditions: Homo sapiens
[5] = system: A549 (Lung Adenocarcinoma); assay: Cell viability analysis, lung cancer A549; conditions: Homo sapiens
[6] = system: HeLa (Cervix Adenocarcinoma); assay: Cell viability analysis, cervical cancer HeLa; conditions: Homo sapiens, HeLa
cancer cell lines = assay: Cell viability analysis (WST-1) on cancer cell lines; conditions: drug 10 μM, 72 hours, WST-1; Table 3
[7] = system: HI650 (Lung Adenocarcinoma); assay: Cell viability analysis, lung cancer HI650; conditions: Homo sapiens
[8] = system: TSGH-8301 (Urinary Bladder Carcinoma); assay: Cell viability analysis, bladder cancer TSGH-8301; conditions: Homo sapiens
[9] = system: HL-60 (Acute Promyelocytic Leukemia); assay: Cell viability analysis, leukemia HL-60; conditions: Homo sapiens
[10] = system: LoVo (Colorectal Adenocarcinoma); assay: Cell viability analysis, colon cancer LoVo; conditions: Homo sapiens, LoVo
[11] = system: MKN-45 (Gastric Adenocarcinoma); assay: Cell viability analysis, gastric cancer MKN-45; conditions: Homo sapiens
[12] = system: MCF7 (Mammary Gland, Adenocarcinoma); assay: Cell viability analysis, breast cancer MCF7; conditions: Homo sapiens
[13] = A-375, 72 h, read-out: cell viability (survival rate), A375, drug 10 μM, 72 hours, WST-1, OD450 nm
[14] = 72 h, read-out: cell viability (survival rate), AGS, drug 10 μM, 72 hours, WST-1, OD450 nm
[15] = 72 h, read-out: cell viability (survival rate), PC3, drug 10 μM, 72 hours, WST-1, OD450 nm
[16] = HepG2, 72 h, read-out: cell viability (survival rate), HepG2, drug 10 μM, 72 hours, WST-1, OD450 nm
[17] = A549, 72 h, read-out: cell viability (survival rate), A549, drug 10 μM, 72 hours, WST-1, OD450 nm
[18] = 72 h, read-out: cell viability (survival rate), HeLa, drug 10 μM, 72 hours, WST-1, OD450 nm
[19] = NCI-H1650, 72 h, read-out: cell viability (survival rate), H1650, drug 10 μM, 72 hours, WST-1, OD450 nm
[20] = 72 h, read-out: cell viability (survival rate), TSGH, drug 10 μM, 72 hours, WST-1, OD450 nm
[21] = HL-60, 72 h, read-out: cell viability (survival rate), HL-60, drug 10 μM, 72 hours, WST-1, OD450 nm
[22] = 72 h, read-out: cell viability (survival rate), LoVo, drug 10 μM, 72 hours, WST-1, OD450 nm
[23] = MKN-45, 72 h, read-out: cell viability (survival rate), MKN-45, drug 10 μM, 72 hours, WST-1, OD450 nm
[24] = MCF7, 72 h, read-out: cell viability (survival rate), MCF7, drug 10 μM, 72 hours, WST-1, OD450 nm

`C[C@@H]1[C@H](O)[C@@H](C)/C=C/C=C/C=C/C=C/C=C/C=C/C=C/[C@H](O[C@@H]2O[C@H](C)[C@@H](O)[C@H](N)[C@@H]2O)C[C@@H]2O[C@](O)(C[C@@H](O)C[C@@H](O)[C@H](O)CC[C@@H](O)C[C@@H](O)CC(=O)O[C@H]1C)C[C@H](O)[C@H]2C(=O)O` [Amphotericin B (Abelcet), Amphotericin B] was tested. Which viability at 10 µM [1, 13] did it give?
The viability at 10 µM was 98.9%.

And the viability at 10 µM [2, 14]?
Its viability at 10 µM is 28.5%.

And the viability at 10 µM [3, 15]?
Its viability at 10 µM is 66.9%.

And the viability at 10 µM [4, 16]?
The viability at 10 µM was 90.3%.

What about the viability at 10 µM [5, 17] of the same compound?
Its viability at 10 µM is 45%.

And the viability at 10 µM [6, 18]?
The viability at 10 µM was 84.5%.

What about the “inhibition effect on different cancer cell lines” value (cancer cell lines) of the same compound?
The value was “significant inhibition effect”.

And the viability at 10 µM [7, 19]?
The viability at 10 µM was 61.2%.

What about the viability at 10 µM [8, 20] of the same compound?
The viability at 10 µM was 56%.

What about the viability at 10 µM [9, 21] of the same compound?
Its viability at 10 µM is 116%.

And the viability at 10 µM [10, 22]?
The viability at 10 µM was 66.5%.

What about the viability at 10 µM [11, 23] of the same compound?
Its viability at 10 µM is 44%.

What about the viability at 10 µM [12, 24] of the same compound?
Its viability at 10 µM is 38.9%.

Which results are given for `CC(C)OC(=O)OCOP(=O)(CO[C@H](C)Cn1cnc2c(N)ncnc21)OCOC(=O)OC(C)C` [Tenofovir Disoproxil Fumarate]?
viability at 10 µM ([1]; A-375, drug 10 μM, 72 hours, WST-1, OD450 nm, read-out: cell viability (survival rate), A375): 67.1%; viability at 10 µM ([2]; drug 10 μM, 72 hours, WST-1, OD450 nm, read-out: cell viability (survival rate), AGS): 54.7%; viability at 10 µM ([3]; drug 10 μM, 72 hours, WST-1, OD450 nm, read-out: cell viability (survival rate), PC3): 66.9%; viability at 10 µM ([4]; HepG2, drug 10 μM, 72 hours, WST-1, OD450 nm, read-out: cell viability (survival rate), HepG2): 93.7%; viability at 10 µM ([5]; A549, drug 10 μM, 72 hours, WST-1, OD450 nm, read-out: cell viability (survival rate), A549): 47%; viability at 10 µM ([6]; drug 10 μM, 72 hours, WST-1, OD450 nm, read-out: cell viability (survival rate), HeLa): 85.7%; inhibition effect on different cancer cell lines (cancer cell lines): significant inhibition effect; viability at 10 µM ([7]; NCI-H1650, drug 10 μM, 72 hours, WST-1, OD450 nm, read-out: cell viability (survival rate), H1650): 50.9%; viability at 10 µM ([8]; drug 10 μM, 72 hours, WST-1, OD450 nm, read-out: cell viability (survival rate), TSGH): 88.2%; viability at 10 µM ([9]; HL-60, drug 10 μM, 72 hours, WST-1, OD450 nm, read-out: cell viability (survival rate), HL-60): 93.4%; viability at 10 µM ([10]; drug 10 μM, 72 hours, WST-1, OD450 nm, read-out: cell viability (survival rate), LoVo): 75.8%; viability at 10 µM ([11]; MKN-45, drug 10 μM, 72 hours, WST-1, OD450 nm, read-out: cell viability (survival rate), MKN-45): 71.6%; viability at 10 µM ([12]; MCF7, drug 10 μM, 72 hours, WST-1, OD450 nm, read-out: cell viability (survival rate), MCF7): 68.7%

For `CC(NCCc1ccc(O)cc1)C(O)c1ccc(O)cc1` (centres unmarked) [Ritodrine hydrochloride (Yutopar), Ritodrine hydrochloride], which viability at 10 µM [1, 13] is on record?
Its viability at 10 µM is 87.4%.

What about the viability at 10 µM [2, 14] of the same compound?
Its viability at 10 µM is 80.1%.

What about the viability at 10 µM [3, 15] of the same compound?
Its viability at 10 µM is 113%.

And the viability at 10 µM [4, 16]?
Its viability at 10 µM is 92.8%.

And the viability at 10 µM [5, 17]?
The viability at 10 µM was 95.5%.

What about the viability at 10 µM [6, 18] of the same compound?
Its viability at 10 µM is 133%.

What about the “inhibition effect on different cancer cell lines” value (cancer cell lines) of the same compound?
The value was “significant inhibition effect”.

And the viability at 10 µM [7, 19]?
The viability at 10 µM was 96.4%.

And the viability at 10 µM [8, 20]?
The viability at 10 µM was 64.4%.

What about the viability at 10 µM [9, 21] of the same compound?
The viability at 10 µM was 86%.

And the viability at 10 µM [10, 22]?
The viability at 10 µM was 104%.

And the viability at 10 µM [11, 23]?
The viability at 10 µM was 97.2%.

And the viability at 10 µM [12, 24]?
Its viability at 10 µM is 86.5%.

Which viability at 10 µM [1, 13] does the source give for `CC(C)NCC(O)c1ccc(O)c(O)c1` (centres unmarked) [Isoprenaline hydrochloride] here?
The viability at 10 µM was 90%.

And the viability at 10 µM [2, 14]?
Its viability at 10 µM is 72%.

What about the viability at 10 µM [3, 15] of the same compound?
The viability at 10 µM was 73.6%.

And the viability at 10 µM [4, 16]?
The viability at 10 µM was 81.4%.

And the viability at 10 µM [5, 17]?
Its viability at 10 µM is 56.1%.

And the viability at 10 µM [6, 18]?
The viability at 10 µM was 91.1%.

And the “inhibition effect on different cancer cell lines” value (cancer cell lines)?
The value was “significant inhibition effect”.

What about the viability at 10 µM [7, 19] of the same compound?
Its viability at 10 µM is 39.9%.

And the viability at 10 µM [8, 20]?
Its viability at 10 µM is 81.6%.

And the viability at 10 µM [9, 21]?
The viability at 10 µM was 96.8%.

What about the viability at 10 µM [10, 22] of the same compound?
Its viability at 10 µM is 80.6%.

And the viability at 10 µM [11, 23]?
Its viability at 10 µM is 79.6%.

What about the viability at 10 µM [12, 24] of the same compound?
The viability at 10 µM was 73.2%.

For `CCCNC(=O)NS(=O)(=O)c1ccc(Cl)cc1` [Chlorpropamide], which viability at 10 µM ([1]; A-375, 72 h, drug 10 μM, 72 hours, WST-1, OD450 nm, read-out: cell viability (survival rate), A375) is on record?
The viability at 10 µM was 62.1%.

What about the viability at 10 µM ([2]; 72 h, drug 10 μM, 72 hours, WST-1, OD450 nm, read-out: cell viability (survival rate), AGS) of the same compound?
The viability at 10 µM was 51.2%.

What about the viability at 10 µM ([3]; 72 h, drug 10 μM, 72 hours, WST-1, OD450 nm, read-out: cell viability (survival rate), PC3) of the same compound?
The viability at 10 µM was 44.4%.

And the viability at 10 µM ([4]; HepG2, 72 h, drug 10 μM, 72 hours, WST-1, OD450 nm, read-out: cell viability (survival rate), HepG2)?
Its viability at 10 µM is 92.5%.

And the viability at 10 µM ([5]; A549, 72 h, drug 10 μM, 72 hours, WST-1, OD450 nm, read-out: cell viability (survival rate), A549)?
Its viability at 10 µM is 36.9%.

What about the viability at 10 µM ([6]; 72 h, drug 10 μM, 72 hours, WST-1, OD450 nm, read-out: cell viability (survival rate), HeLa) of the same compound?
Its viability at 10 µM is 59.9%.

And the “inhibition effect on different cancer cell lines” value (cancer cell lines)?
The value was “significant inhibition effect”.

What about the viability at 10 µM ([7]; NCI-H1650, 72 h, drug 10 μM, 72 hours, WST-1, OD450 nm, read-out: cell viability (survival rate), H1650) of the same compound?
Its viability at 10 µM is 55.8%.

What about the viability at 10 µM ([8]; 72 h, drug 10 μM, 72 hours, WST-1, OD450 nm, read-out: cell viability (survival rate), TSGH) of the same compound?
Its viability at 10 µM is 59.1%.

What about the viability at 10 µM ([9]; HL-60, 72 h, drug 10 μM, 72 hours, WST-1, OD450 nm, read-out: cell viability (survival rate), HL-60) of the same compound?
Its viability at 10 µM is 96.7%.

What about the viability at 10 µM [10, 22] of the same compound?
Its viability at 10 µM is 59.3%.

And the viability at 10 µM ([11]; MKN-45, 72 h, drug 10 μM, 72 hours, WST-1, OD450 nm, read-out: cell viability (survival rate), MKN-45)?
Its viability at 10 µM is 42.7%.

And the viability at 10 µM ([12]; MCF7, 72 h, drug 10 μM, 72 hours, WST-1, OD450 nm, read-out: cell viability (survival rate), MCF7)?
The viability at 10 µM was 32.5%.
